Assay results from patent publication US12104181B2, “Compositions and methods for treating viral infections targeting TRIM7” (THE BOARD OF REGENTS OF THE UNIVERSITY OF TEXAS SYSTEM, priority 2021, dated 2024).
Residues, ends and D or L forms follow the SMILES beside them. *: point of attachment. Cbz = O=C(OCc1ccccc1)*

Tests used:
CVB3-GFP = assay type: cell-based, coxsackievirus B3; details: for CVB3 infectivity in control HeLa-Fluc cells: 1 MOI, 8 hpi
CVB3 HA-2BC = test: Viral protein degradation in co-transfected 293T cells, Western blot; assay type: cell-based; details: MG132 10 μM at 24 hours post-transfection for 6 hours
Text: Since TRIM7 binds 2C and 2BC, it was next tested whether TRIM7 targets either protein for degradation. […] 293T cells were co-transfected with plasmids expressing HA-tagged CVB3 viral proteins and 3×Flag-tagged TRIM7 (TRIM7-3F) or Fluc-expressing vector. […] Moreover, proteasome inhibition by MG132 restored HA-2BC protein in the presence of TRIM7 (FIG. 4F). Similar results were obtained with 2BC from other TRIM7-targeted enteroviruses, including EV71 and EVD68, whereas 2BC from TRIM7-insensitive MenV was unaffected (FIGS. 4G-4H). Accordingly, 2BC from EV71, but not MenV, interacted with TRIM7 in pulldown assays (FIG. 4I).
Protein lysate preparation and Western blot. Tissue culture cells were lysed in Nonidet P-40 (NP-40) buffer (50 mM Tris pH 7.4, 150 mM NaCl, 1% (v/v) NP-40, 1 mM EDTA, protease inhibitor cocktail) and incubated on ice for 30 min, followed by centrifugation at 13,000 rpm for 20 min at 4° C. For mouse tissue lysates, fresh tissues were collected in 2 ml round-bottom Eppendorf tubes containing NP40 lysis buffer and cut to small pieces using scissors. Then the tissues were homogenized with a Bullet Blender homogenizer (Next Advanced Inc., Averill Park, NY), and centrifuged at 13,000 rpm for 20 min at 4° C. Western blot analyses were performed as previously described (Mar et al., 2018).

[1] = tested on: vesicular stomatitis virus; assay type: cell-based
[2] = tested on: coxsackievirus B3 (CVB3-GFP); assay type: cell-based; details: HeLa cells, replicate R1; for Percent Infected R1: GFP-positive cells within RFP-positive gate

Row | Molecule | CVB3 infectivity in control HeLa-Fluc cells (CVB3-GFP) | Percent Infected R1 [2] | Z score R1 [2] | other results
1 | c1ccc(CNc2nc(NCc3ccccc3)c3ccccc3n2)cc1 [DBeQ] | modestly reduced |  |  | rescue of CVB3-GFP infection in TRIM7-expressing cells (CVB3-GFP): failed to rescue
2 | CC(C)C[C@@H](C=O)NC(=O)[C@H](CC(C)C)NC(=O)[C@H](CC(C)C)NC(=O)OCc1ccccc1 [MG132] (Cbz-Leu-Leu-Leu-aldehyde) | modestly impaired |  |  | HA-2BC protein in the presence of TRIM7 (CVB3 HA-2BC): restored; rescue of CVB3-GFP infection in TRIM7-expressing cells (CVB3-GFP): striking rescue; rescue of viral replication from transfected CVB3-GFP RNA (CVB3-GFP): rescued; rescue of infection in TRIM7-expressing cells, late addition (CVB3-GFP; added at later time points (post primary translation, >4 hours)): failed to rescue
3 | CO/C1=C\C(C)=C\[C@@H](C)[C@@H](O)[C@@H](C)C/C(C)=C/C=C/[C@H](OC)[C@@H]([C@@H](C)[C@@H](O)[C@H](C)[C@@]2(O)C[C@@H](O)[C@H](C)[C@@H](C(C)C)O2)OC1=O [bafilomycin A1] | no impact |  |  | replication of vesicular stomatitis virus [1]: inhibited
4 | CCN(CC)CCCC(C)Nc1ccnc2cc(Cl)ccc12 (centres unmarked) [chloroquine] | no impact |  |  | replication of vesicular stomatitis virus [1]: inhibited
5 | MKRN2: human RING type E3 ligase expressed from lentiviral vector |  | 93.3% | 0.06 | 
6 | RAD18: human RING type E3 ligase expressed from lentiviral vector |  | 91.2% | 0.033 | 
7 | RNF5: human RING type E3 ligase expressed from lentiviral vector |  | 96.1% | 0.1 | 
8 | RNF20: human RING type E3 ligase expressed from lentiviral vector |  | 91.8% | 0.041 | 
9 | RNF40: human RING type E3 ligase expressed from lentiviral vector |  | 97.1% | 0.11 | 
10 | RNF126: human RING type E3 ligase expressed from lentiviral vector |  | 94.5% | 0.08 | 
11 | TRIM5: human RING type E3 ligase expressed from lentiviral vector |  | 56.2% | −0.412 | 
12 | TRIM21: human RING type E3 ligase expressed from lentiviral vector |  | 65.7% | −0.291 | 
13 | TRIM25: human RING type E3 ligase expressed from lentiviral vector |  | 53.7% | −0.444 | 
